Data taken from patent US20180057530A1, “CYCLIC PEPTIDE COMPOUND, AND PREPARATION AND USE THEREOF” (Zhejiang Hisun Pharmaceutical Co., Ltd., priority 2015, published 2018).
“And” between values parts separate entries of the source, which are not always exact repeats. Equal entries are not always repeated. Marks after values point to notes of the source that are not given here.

How the values were obtained:
[1] = system: human prostate cancer cells (PC-3); assay: MTT tumor cell growth inhibition, PC-3; type: cell-based; details: PC-3, MTT, 72 hours, relative IC50
Description: (§1) The tetrazolium salt (MTT) reduction method was used to test the activity of the compounds of the present invention. Human breast cancer cells (MDA-MB-231) (CAS cell library; catalog number: TCHu227), human lung cancer cells (A549) (ATCC® Number: CRM-CCL-185™), human colon cancer cells (HCT-116) (CAS cell library; catalog number: TCHu99), acute monocytic leukemia cells (MV4-11) (ATCC® Number: CRL-9591™), tissue cell lymphoma cells (U-937) (CAS cell library; catalog number: TCHu159), human acute promyelocytic leukemia cells (HL-60) (ATCC® Number: CCL-240™), chronic myelogenous leukemia cells (of K562) (CAS cell library; catalog number: TCHu191), human hepatocellular carcinoma cells (BEL-7404) (CAS cell library; catalog number: TCHu64), human pancreatic cancer cells (BxPC3) (ATCC® Number: […])) and human prostate cancer cells (PC-3) (ATCC®Number: […]) were inoculated in 96-well plates, 90 μL/well, with 3000 to 8000 cells in respective well; in the first row of plate, 100 μL/well culture medium was added; the 96-well plate was pre-incubated in an incubator at 37° C., 5% CO2, and 100% relative humidity for 24 hours.
(§2) A compound was weighed and configured to a 10 mM/L stock solution, and the compound was diluted three-fold sequentially from the highest concentration of 2 millimoles (mM); 95 μl the corresponding cell medium was added to each well of a V-bottom dispensing plate; 5 μl of the compound on a 200× plate was transferred to a 10× dispensing plate according to the concentration; 5 μl of dimethylsulfoxide (DMSO) was evenly mixed in the corresponding 95 μl cell culture medium as a vehicle control. 10 μl of the compound-medium in each well of the 10× dispensing plate was added to a 96-well plate already plated with cells. […]
(§3) After the compound for cells was treated for 72 hours, 20 microliters of 5 mg/ml MTT was added to each well; all the steps need to be aseptic. […] The absorbance at 490 nm was read on a SpectraMax M2e instrument. The compound activity (relative IC50) was calculated using GraphPad Prism software.

[2] = system: acute monocytic leukemia cells (MV4-11); assay: MTT tumor cell growth inhibition, MV4-11; type: cell-based; details: Homo sapiens; MV4-11, MTT, 72 hours, relative IC50
Description: as §1, §2, §3

[3] = system: chronic myelogenous leukemia cells (K562); assay: MTT tumor cell growth inhibition, K562; type: cell-based; details: Homo sapiens, 72 hours, relative IC50
Description: as §1, §2, §3

[4] = system: Human breast cancer cells (MDA-MB-231); assay: MTT tumor cell growth inhibition, MDA-MB-231; type: cell-based; details: MDA-MB-231, MTT, 72 hours, relative IC50
Description: as §1, §2, §3

[5] = system: human hepatocellular carcinoma cells (BEL-7404); assay: MTT tumor cell growth inhibition, BEL-7404; type: cell-based; details: BEL-7404, MTT, 72 hours, relative IC50
Description: as §1, §2, §3

[6] = system: human pancreatic cancer cells (BxPC3); assay: MTT tumor cell growth inhibition, BxPC3; type: cell-based; details: BXPC-3, 72 hours, relative IC50
Description: as §1, §2, §3

[7] = system: tissue cell lymphoma cells (U-937); assay: MTT tumor cell growth inhibition, U-937; type: cell-based; details: Homo sapiens; U-937, MTT, 72 hours, relative IC50
Description: as §1, §2, §3

[8] = system: human acute promyelocytic leukemia cells (HL-60); assay: MTT tumor cell growth inhibition, HL-60; type: cell-based; details: HL-60, MTT, 72 hours, relative IC50
Description: as §1, §2, §3

[9] = system: human lung cancer cells (A549); assay: MTT tumor cell growth inhibition, A549; type: cell-based; details: 72 hours, relative IC50
Description: as §1, §2, §3

[10] = system: Human breast cancer cell line MDA-MB-231; assay: In vivo pharmacodynamic study of compound A, MDA-MB-231 nude mice transplanted tumor model; set-up: species or system BALB/C nude mice; details: MDA-MB-231 model, q4d, 4x
Experimental: (§4) Female BALB/C nude mice 6 weeks to 8 weeks old and weighing about 19 g to 29 g were taken (Supplier: Beijing Vital River Laboratory Animal Technology Co., Ltd.) and raised for a week. A human cancer nude mice […] transplanted tumor model was established: Human breast cancer cell line MDA-MB-231 (ATCC® Number: HTB-26™) and human lung cancer cell line NCI-H460 (ATCC® Number: HTB-177™) were incubated. The monolayer tumor cells were digested and detached; then, they were collected and resuspended in a serum-free culture medium, and then were adjusted to a concentration of 2×10^6/0.2 mL. They were put into an iced box and brought to an animal house. A syringe with a No. 6 needle was used to directly take a 0.2 mL cell suspension and transplanted it into the rear subcutaneous scapular regions of the left axillaries of the nude mice at 2×10^6/0.2 mL per mouse. Tumor volumes were measured once every 2 days to 3 days. After two weeks, tumor-bearing nude mice with vigorous tumor growth and no ulceration were selected, the tumors were removed from them under sterile conditions. The tumor tissues were cut to about 2 mm to 3 mm in diameter and inoculated in the rear subcutaneous scapular regions of the left axillaries of the nude mice. After passage for three generations, when the tumor volume grew to 100 mm^3, nude mice with tumor masses that were too large or too small were removed and randomly grouped for administration.
(§5) The mice were randomly divided into five groups, including the negative control group (vehicle), positive control group (Romidepsin, 2.4 mg/kg), treatment group with the high, medium, and low doses of compound A (respectively 7.2 mg/kg, 4.8 mg/kg, 2.4 mg/kg, wherein the high dose was lower than the maximum tolerated dose, MTD); there were six nude mice in each group; intravenous administration was given every 4 days; 4 doses were given. During the period, the weights and tumor volumes of the animals were measured every 2 days, and the number of animal deaths was recorded. 24 hours after the last administration, the animals were sacrificed. The tumor volumes, tumor weights, and body weights of nude mice were measured; tumor volume growth curves, nude mice weight growth curves and tumor inhibition rates, mortality of the animals were plotted; the relative tumor proliferation rate T/C (%) was calculated; according to the formula T/C (%)=TRTV/CRTV*100%. (TRTV: treatment group RTV; CRTV: negative control group RTV, relative tumor volume RTV=Vt/V0, wherein V0 is the tumor volume at the time of administration by group; Vt is the post-administration tumor volume).

tumor cells = assay: MTT tumor cell growth inhibition, summary over the cell line panel; type: cell-based; details: ten tumor cell lines of Table 2, MTT, 72 hours; read-out: IC50 of tumor cell proliferation inhibition, span over the tested cell lines
Description: as §1, §2, §3

blood cells = assay: Effect on blood phase, complete blood count (CBC) analysis; type: in vivo, BAB-C mice; details: 0.5 mg/kg; for PLT / RBC / WBC: mean±SD
Experimental: BAB-C mice (6 to 8 weeks old, a half being males and the other half females, weighing about 18 g-25 g, supplier: Beijing Vital River Laboratory Animal Technology Co., Ltd.) were raised for one week and then divided into three groups: normal control group, Romidepsin group, and compound A group. The normal group was injected with the vehicle; the drug group was injected with 0.5 mg/kg of the drug; 24 hours and 48 hours respectively after administration, a complete blood count (CBC) analysis was performed; for all the data, mean±standard deviation (mean±SD) was adopted; T tests were performed between inter-group data.

[11] = system: human lung cancer cell line NCI-H460; assay: In vivo pharmacodynamic study of compound A, NCI-H460 nude mice transplanted tumor model; set-up: species or system BALB/C nude mice; details: q4d, 4x
Experimental: as §4, §5

[12] = system: human colon cancer cells (HCT-116); assay: MTT tumor cell growth inhibition, HCT-116; type: cell-based; details: HCT-116, MTT, 72 hours, relative IC50
Description: as §1, §2, §3

MDA-MB-231 breast cancer = assay: In vivo efficacy study of compound B, xenografted MDA-MB-231 breast cancer; set-up: species or system BALB/c nude mice; details: once a week for four weeks; for Day 28 tumor volume: mean ± standard error
Experimental: Female BALB/C nude mice 6 weeks to 8 weeks old and weighing about 19 g to 29 g were taken and raised for one week (supplier: Beijing Vital River Laboratory Animal Technology Co., Ltd.) MDA-MB-231 (ATCC® Number: HTB-26™) breast cancer cells were cultured in vitro; the culture conditions were: 10% fetal bovine serum was added to an L-15 medium, 37° C., and 0% CO2. Passage was performed twice a week. When the cells were in the exponential growth phase, the cells were collected, counted, and inoculated. […] The cells were suspended in phosphate buffered saline (PBS) and Matrigel (1:1) was added. A total of 50 mice were inoculated. […] The experimental indicator was to examine whether the tumor growth was inhibited, delayed, or subsided. Tumor diameter was measured three times a week with a vernier caliper. The formula for calculating tumor volume is as follows: […] The antitumor efficacy of the compound was evaluated with T/C (%) and of TGI. […] T0 indicates the mean tumor volume of the treatment group at the time of administration by cage; Vi indicates the mean tumor volume of the vehicle group on the same day; V0 indicates the mean tumor volume of the vehicle group at the time of administration by cage. At the end of the experiment, the tumors were stripped, weighed, and photographed.

[13] = mice, 24 h after administration
[14] = mice, 48 h after administration

| Compound | IC50 [1] | IC50 [2] | IC50 [3] | IC50 [4] | IC50 [5] | IC50 [6] | IC50 [7] | IC50 [8] | IC50 [9] | Relative tumor proliferation rates T/C (%) ([10]; 2.4 mg/kg) | IC50 (tumor cells) | Relative tumor proliferation rates T/C (%) ([11]; 2.4 mg/kg) | IC50 [12] | Day 28 tumor volume (MDA-MB-231 breast cancer; 6.6 mg/kg intravenous) | T/C (%) (MDA-MB-231 breast cancer; day 28, 6.6 mg/kg intravenous) | TGI (%) (MDA-MB-231 breast cancer; day 28, 6.6 mg/kg intravenous) | further results |
| --- | --- | --- | --- | --- | --- | --- | --- | --- | --- | --- | --- | --- | --- | --- | --- | --- | --- |
| C/C=C1\NC(=O)[C@H]2C[S+]([O-])SCC/C=C/[C@H](CC(=O)N[C@H](C(C)C)C(=O)N2)OC(=O)[C@H](C(C)C)NC1=O (stereo partly shown) [Compound A] | 11.9 nM | 33 nM | 23.2 nM | 9.7 nM | 10 nM | 13.9 nM | 22.8 nM | 35.9 nM | 10.7 nM | 45.5%(2.4 mg/kg, q4d, 4x) | 9.7 to 35.9 nM | 44%(2.4 mg/kg, q4d, 4x) | 29.3 nM |  |  |  | Relative tumor proliferation rates T/C (%) ([10]; 4.8 mg/kg): 35.4%(4.8 mg/kg, q4d, 4x); Relative tumor proliferation rates T/C (%) ([10]; 7.2 mg/kg): 29.8%(7.2 mg/kg, q4d, 4x); PLT compared with the normal group (blood cells; mouse, in vivo): significantly decreased; WBCs compared with the normal group (blood cells; mouse, in vivo): no significant difference compared with the normal group; Relative tumor proliferation rates T/C (%) ([11]; 4.8 mg/kg): 38.6%(4.8 mg/kg, q4d, 4x); Relative tumor proliferation rates T/C (%) ([11]; 7.2 mg/kg): 25.2%(7.2 mg/kg, q4d, 4x) |
| C/C=C1\NC(=O)[C@H]2CS[S+]([O-])CC/C=C/[C@H](CC(=O)N[C@H](C(C)C)C(=O)N2)OC(=O)[C@H](C(C)C)NC1=O (stereo partly shown) [Compound B] | 6.1 nM | 4.8 nM | 2.6 nM | 2 nM | 4.9 nM | 6.5 nM | 5.4 nM | 3.4 nM | 3.6 nM |  | 2 to 6.5 nM |  | 6.1 nM | 187 ± 29 mm^3 | 4.5% | 95.5% | Day 28 tumor volume (MDA-MB-231 breast cancer; 2.2 mg/kg intravenous): 259 ± 47 mm^3; Day 28 tumor volume (MDA-MB-231 breast cancer; 2.2 mg/kg intravenous, listed as compound B): 259 mm^3; Day 28 tumor volume (MDA-MB-231 breast cancer; 4.4 mg/kg intravenous): 202 ± 38 mm^3; Day 28 tumor volume (MDA-MB-231 breast cancer; 4.4 mg/kg intravenous, listed as compound B): 202 mm^3; Day 28 tumor volume (MDA-MB-231 breast cancer; 6.6 mg/kg intravenous, listed as compound B): 187 mm^3; T/C (%) (MDA-MB-231 breast cancer; day 28, 2.2 mg/kg intravenous): 11.3%; TGI (%) (MDA-MB-231 breast cancer; day 28, 2.2 mg/kg intravenous): 88.7%; T/C (%) (MDA-MB-231 breast cancer; day 28, 4.4 mg/kg intravenous): 5.9%; TGI (%) (MDA-MB-231 breast cancer; day 28, 4.4 mg/kg intravenous): 94.1% |
| C/C=C1\NC(=O)[C@H]2CSSCC/C=C/[C@H](CC(=O)N[C@H](C(C)C)C(=O)N2)OC(=O)[C@H](C(C)C)NC1=O [Romidepsin, reference compound] | 7.1 nM | 6.8 nM | 4.1 nM | 3.6 nM | 6.4 nM | 8.7 nM | 7.2 nM | 8.6 nM | 5.2 nM | 48.9%(2.4 mg/kg, q4d, 4x) | 3.6 to 8.7 nM | 42.2%(2.4 mg/kg, q4d, 4x) | 6.5 nM | 260 mm^3 and 260 ± 103 mm^3 | 11.4% | 88.6% | PLT (blood cells; [13]): 600.56 ± 71.51** 1 × 10*9/L; RBC (blood cells; [13]): 10.30 ± 0.47 1 × 10*12/L; WBC (blood cells; [13]): 4.32 ± 2.61** 1 × 10*9/L; PLT (blood cells; [14]): 431.31 ± 64.96** 1 × 10*9/L; RBC (blood cells; [14]): 10.23 ± 0.78 1 × 10*12/L; WBC (blood cells; [14]): 6.92 ± 3.29** 1 × 10*9/L; WBC count decrease (blood cells; mice, at 24 h, vs normal group): 75%; PLT compared with the normal group (blood cells; mice, at 24 h and 48 h): significantly decreased; WBC count restored to percent of the normal group (blood cells; mice, at 48 h): 40% |
